Here are results for nine molecules from patent publication US20050130116A1, “Stable expression of polymorphous forms of human cytochrome p450 2d6” (priority 2000, published 2005).

Read-outs that look alike come from different tables or passages of the source.

One data set addresses hCYP2D6 9 (Homo sapiens, UniProt P10635, DEL281-281). As to the kind of experiment: Effect of quinidine on the stability of hCYP2D6 (CO difference spectra). The note with it: hCYP2D6 9 (V79MZh2D6*9); quinidine added to the culture medium during cultivation.
For data set [1], the target named is T1, hCYP2D6 (Homo sapiens, UniProt P10635).
Data set [2] has as its target T1, hCYP2D6. As to the kind of experiment: Effect of DMSO on tamoxifen-4-hydroxylase activity. It counts as biochemical. More on the design: expressed in transfected cells; host or cells: V79MZ Chinese hamster fibroblasts (V79MZh2D6*1, DSM ACC2446; also V79MZh2D6*1-H and -S).
Data set [3] deals with V79MZh2D6 cells.
For data set [4], the system named is V79MZh2D6 cells. As to the kind of experiment: Supplementation of culture medium with heme sources (cytotoxic limit, bufuralol hydroxylase activity). The note with it: up to the cytotoxic limit.
For another data set, the system named is human liver microsomes. The following applies: cited from earlier work; for contribution to the 4-hydroxylation of tamoxifen: human liver microsomes (Crewe et al., 1997); for tamoxifen-4-hydroxylation activity: 1 μM tamoxifen (Crewe et al., 1997).
A further data set concerns the target hCYP2D6*1 and hCYPOR (Homo sapiens, UniProt P10635). The following applies: V79MZh2D6*1-hOR homogenate; 200 μM racemic bufuralol.
The target in data set [5] is T2, hCYP2D6 1 (Homo sapiens, UniProt P10635). The following applies: V79MZh2D6*1 homogenate, NADPH (Bogni, 1999); racemic bufuralol; cited from earlier work.
Data set [6] deals with T2, hCYP2D6 1. The note with it: cited from earlier work.
In data set [7] the test system is hCYP2D6 1. The note with it: cited from earlier work; for Km: racemic bufuralol.
[8] abbreviates: AHH-1 TK+/− (h2D6Val/OR) microsomes, CYPOR/NADPH (Gentest, produkt # M117r).
The mark [9] stands for this setting: E. coli, purified, CYPOR/NADPH (Gillam et al., 1995).
[10] abbreviates: Sf9 insect cells cell extract, CYPOR/NADPH (Paine et al., 1996).
Where [11] appears, read: AHH-1 TK+/− (h2D6Metv2) microsomes, NADPH (Penman et al., 1993).
The mark [12] stands for this setting: Hep G2 cell lysate, CuOOH (Tyndale et al., 1991a).
The mark [13] stands for this setting: S. cerevisiae W(R) microsomes, Yred/NADPH (Oscarson et al., 1997).
[14] abbreviates: Sf9 insect cells membranes, CYPOR/NADPH (Evert et al., 1997).
The mark [15] stands for this setting: Sf9 insect cells membranes, CYPOR/NADPH (Patten et al., 1996).

T2 sequence (P10635 whole entry): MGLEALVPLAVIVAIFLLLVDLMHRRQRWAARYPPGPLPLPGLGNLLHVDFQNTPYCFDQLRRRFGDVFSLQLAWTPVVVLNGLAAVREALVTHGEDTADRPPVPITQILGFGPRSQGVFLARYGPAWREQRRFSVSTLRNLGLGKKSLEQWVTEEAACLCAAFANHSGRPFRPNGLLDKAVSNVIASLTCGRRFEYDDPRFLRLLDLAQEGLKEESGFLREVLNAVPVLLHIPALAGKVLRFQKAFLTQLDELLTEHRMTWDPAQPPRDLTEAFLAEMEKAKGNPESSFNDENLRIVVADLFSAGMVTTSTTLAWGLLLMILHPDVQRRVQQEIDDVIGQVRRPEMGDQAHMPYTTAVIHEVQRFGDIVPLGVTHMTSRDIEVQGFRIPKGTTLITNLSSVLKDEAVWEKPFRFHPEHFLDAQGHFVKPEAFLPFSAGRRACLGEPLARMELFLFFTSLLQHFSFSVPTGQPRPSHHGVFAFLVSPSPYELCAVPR
T1 sequence (P10635 whole entry): as above
hCYP2D6 9, sequence (P10635 with tags, fused parts or gaps DEL281-281): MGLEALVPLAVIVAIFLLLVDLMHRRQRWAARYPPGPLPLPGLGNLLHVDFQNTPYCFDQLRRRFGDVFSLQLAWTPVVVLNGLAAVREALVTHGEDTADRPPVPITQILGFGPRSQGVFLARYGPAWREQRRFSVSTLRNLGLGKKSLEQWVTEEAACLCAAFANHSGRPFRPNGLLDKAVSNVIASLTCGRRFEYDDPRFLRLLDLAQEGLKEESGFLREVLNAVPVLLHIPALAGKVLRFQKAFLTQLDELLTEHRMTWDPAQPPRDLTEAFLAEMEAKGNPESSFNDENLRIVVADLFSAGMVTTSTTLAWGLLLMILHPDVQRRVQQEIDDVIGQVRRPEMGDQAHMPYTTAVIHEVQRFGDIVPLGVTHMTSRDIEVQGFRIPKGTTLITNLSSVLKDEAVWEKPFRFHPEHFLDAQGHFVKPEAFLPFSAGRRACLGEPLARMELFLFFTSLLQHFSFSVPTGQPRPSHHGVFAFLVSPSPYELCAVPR

In the case of `C=C[C@H]1C[N@@]2CC[C@H]1C[C@@H]2[C@@H](O)c1ccnc2ccc(OC)cc12` [quinidine], on hCYP2D6 9, the “increase in the amount of cytochrome P450” value is 4-6 fold.
For `CC/C(=C(\c1ccccc1)c1ccc(OCC[N+](C)(C)[O-])cc1)c1ccccc1` [Z-Tamoxifen-N-oxide], the “metabolism by V79MZh2D6 homogenate (hCYP2D6-catalyzed hydroxylation)” value (shortened to “metabolism by V79MZh2D6 homogenate”) on hCYP2D6 [1] is listed as “only to a minor extent”.
Take `C[S+](C)[O-]` [DMSO, dimethylsulfoxide]: at hCYP2D6 [2] (10% DMSO), the “tamoxifen-4-hydroxylase activity relative to that obtained at […] DMSO” value is “about 20%”. Also, at hCYP2D6 [2] (up to a DMSO concentration of […]), the “effect on tamoxifen-4-hydroxylase activity” value was “only sligthly affected”.
As for `CC/C(=C(\c1ccccc1)c1ccc(OCCN)cc1)c1ccccc1` [Z-N-didemethyl-tamoxifen], the “metabolism by V79MZh2D6 homogenate” value on hCYP2D6 [1] is reported as “negligible”.
Consider hemin chloride, for which, in the data set with V79MZh2D6 cells [3], the cytotoxic limit is 10 µM. In addition, in the data set on V79MZh2D6 cells [4], the “bufuralol hydroxylase activity per mg total protein in the cell homogenate after supplementation” value is listed as “no increased bufuralol hydroxylase activity”.
On to `CC/C(=C(\c1ccccc1)c1ccc(OCCN(C)C)cc1)c1ccccc1` [tamoxifen], for which the “contribution to the 4-hydroxylation of tamoxifen” value with human liver microsomes (hCYP2C9*1) is reported as “+”; in the data set on human liver microsomes (hCYP2D6*1) it was “+”; with human liver microsomes (hCYP2E1), “−”; in the data set with human liver microsomes (hCYP3A4), “+”. The values for the tamoxifen-4-hydroxylation activity in the data set with human liver microsomes (human liver microsomes of extensive metabolizers) and with human liver microsomes (human liver microsomes of poor metabolizers) were 1.1-3 pmol/min/mg protein and 0.7-0.8 pmol/min/mg protein, respectively.
For the molecule `CC/C(=C(\c1ccccc1)c1ccc(OCCNC)cc1)c1ccccc1` [Z-N-demethyl-tamoxifen], on hCYP2D6 [1], the “metabolism by V79MZh2D6 homogenate” value is “proceeded well”.
As usually defined, the Km is the substrate concentration at which the rate is half of its maximum. `CCc1cccc2cc(C(O)CNC(C)(C)C)oc12` (racemic) [racemic bufuralol] returned a bufuralol hydroxylase activity at hCYP2D6*1 and hCYPOR of 143 ± 6 pmol/mg/min. Besides, the “Vmax (+/−)” value at hCYP2D6 1 [5] is recorded as 153 ± 26 pmol/mg/min; on hCYP2D6 1 [6] (setting [8]), 550 pmol/mg/min; in the data set with hCYP2D6 1 [7] (setting [10]), 370 pmol/mg/min. Also, the “Reaction rate (+/−)” value on hCYP2D6 1 [6] (setting [8]) was 10.38 min⁻¹; on hCYP2D6 1 [6] (purified from human liver, CYPOR/NADPH (Distlerath et al., 1985)) it was 4.4 to 6.4 min⁻¹; in the data set with hCYP2D6 1 [7] (setting [9]), 1.2 ± 0.1 min⁻¹; in the data set with hCYP2D6 1 [7] (setting [10]), 12.23 min⁻¹. The Km in the data set on hCYP2D6 1 [7] (setting [9]) was 39 ± 5 µM; with hCYP2D6 1 [7] (setting [10]) it was 4.7 µM.
Consider `CCc1cccc2cc([C@H](O)CNC(C)(C)C)oc12` [(+)-bufuralol], for which the “Vmax (+)” value was 68 ± 0 pmol/mg/min with hCYP2D6 1 [7] (AHH-1 TK+/− (2D6Met/Hol) cell lysate, NADPH (Crespi et al., 1991)); 126 ± 1 pmol/mg/min with hCYP2D6 1 [7] (AHH-1 TK+/− (h2D6Metv2) cell lysate, NADPH (Penman et al., 1993)); 723 ± 35 pmol/mg/min with hCYP2D6 1 [7] (setting [11]); 3.4 pmol/mg/min in the data set on hCYP2D6 1 [7] (COS-1 cells homogenate, CYPOR/NADPH (Johansson et al., 1994)); 20 to 50 pmol/mg/min in the data set on hCYP2D6 1 [7] (COS-1 cells homogenate, NADPH (Kagimoto et al., 1990)); 34.1 pmol/mg/min in the data set on hCYP2D6 1 [7] (setting [12]). Also, the “Vmax (+)” value in the data set on hCYP2D6 1 [7] (setting [13]) was 116 pmol/mg/min; with hCYP2D6 1 [7] (setting [14]), 17500 ± 2700 pmol/mg/min; with hCYP2D6 1 [7] (setting [15]), 500 to 1000 pmol/mg/min. The “Reaction rate (+)” value with hCYP2D6 1 [7] (setting [11]) is 4.5 min⁻¹; in the data set with hCYP2D6 1 [7] (setting [12]), 2.3 min⁻¹; in the data set on hCYP2D6 1 [7] (setting [13]) it was 10 min⁻¹; with hCYP2D6 1 [7] (setting [14]), 26.2 ± 0.4 min⁻¹; in the data set with hCYP2D6 1 [7] (setting [15]) it was 0.96 min⁻¹.
